Test results reported in publication PMC8282797, “Strictly regulated agonist-dependent activation of AMPA-R is the key characteristic of TAK-653 for robust synaptic responses and cognitive improvement” (Scientific Reports, 2021).
Entries after “also recorded” stand apart in the source; their conditions may differ. Like-named read-outs stand apart in the source and are kept apart here.

Legend:
[1] = system: MK-801-induced working memory deficit in rats; assay: Radial arm maze (RAM) test, MK-801-induced working memory deficit; type: in vivo, rat
Protocol: RAM tests were performed using 9-week-old male Long-Evans rats as previously described with a minor modification. Each arm was 50 cm long, 10 cm wide and 40 cm high, and the maze was elevated 50 cm above the floor. Long-Evans rats were food-restricted to 85% of free-feeding body weight throughout the experimental period. Rats were well trained to collect pellets placed on the edge of each arm. The learning criterion for the testing session was defined as 2 errors or fewer for 2 consecutive days. In the testing session, each rat was placed on the maze facing the fixed arm at the start of the trial. The entry of rats into each arm was recorded in sequence until all pellets in the 8 arms were consumed, or 5 min had elapsed. […] Thirty min after dosing of vehicle or MK-801, rats were placed on the maze. Details are described in the Supplementary Information.
The experiment was performed using 9-week-old male Long-Evans rats as described previously (Zajaczkowski et al., 1996) with a minor modification. Each arm was 50 cm long, 10 cm wide and 40 cm high, and the maze was elevated 50 cm above the floor. After being fasted for 24 h, male Long-Evans rats were food-restricted to 85% of free-feeding body weight on the first day of exposure to the maze and throughout the experimental period. The experiment consists of two sessions, training and testing session. In the training session, rats were habituated to the maze and then trained. Reinforcement consisted of 3 food pellets (45 mg each) in the food cup was used. On the first day of habituation to the maze, reinforcements were placed near the entrance and at the mid-point of each arm. Three rats were placed on the maze at one time and allowed to explore and consume the pellets for 8 min. On the second day of habituation, each rat was placed on the maze and allowed 5 min to consume the pellets placed at the mid-point and in the food cup at the end of each arm. From the third day, reinforcement was placed in the food cup at the end of each arm. Rats were well trained to collect pellets placed on the edge of each arm. The learning criterion for the testing session was defined as 2 errors or less for two consecutive days. In the previous day of the testing session, baseline level of performance was qualified to confirm that rats completed collecting all pellets placed in the 8 arms with two errors or less. In the testing session, each rat was placed on the maze facing away from the experimenter and facing the fixed arm at the start of the trial. The entry of rats into each arm was recorded in sequence. Rats were allowed to explore until all pellets in the 8 arms were consumed, or 5 min had elapsed. Entry into an arm previously chosen was counted as an error. […] […] Thirty min after dosing of vehicle or MK-801, rats were placed on the maze. Data were indicated as the mean ± SEM in the testing session.

AMPA-R [2] = assay: Whole-cell patch clamp recording in acute PFC slices (AMPA-R-mediated EPSPs); type: cell-based, rat; design: key to Synaptic EPSP response: -: No effect or slight effect; +: Potent; ++: Very potent; conditions: for Synaptic EPSP response: summary grade
Protocol: Coronal PFC slices were prepared from male Sprague–Dawley rats (10- to 14-day-old). The slices including layer V PFC pyramidal neurons were perfused at a flow rate of 1–2 ml/min with recording aCSF containing the following: 124 mM NaCl, 5 mM KCl, 1.2 mM NaH2PO4, 1.5 mM MgCl2, 2.5 mM CaCl2, 10 mM glucose, 24 mM NaHCO3 bubbled with carbogen (95% O2; 5% CO2). Current clamp recordings at holding potential of approximately − 65 mV with constant current were carried out at 32–33 °C using a pipette filled with an intracellular solution consisting of: 140 mM K-gluconate, 4 mM KCl, 10 mM HEPES, 0.2 mM EGTA, 4 mM MgATP, 0.3 mM Na2GTP, pH 7.3 with KOH in the presence of bicuculline (20 μM), CGP52422 (10 μM), and APV (50 μM) to block GABAA and B and NMDA receptors, respectively. Methods are described in the Supplementary Information.
Coronal prefrontal cortex (PFC) slices were prepared from male Sprague-Dawley rats (10- to 14-day-old). Animals were sacrificed following acute decapitation, and their brain was quickly removed and placed in an ice-cold modified artificial cerebrospinal fluid (aCSF) of the following composition: 92 mM N-methyl-D-glucamine (NMDG), 2.5 mM KCl, 1.25 mM NaH2PO4, 30 mM NaHCO3, 20 mM HEPES, 25 mM glucose, 2 mM thiourea, 5 mM Na-ascorbate, 3 mM Na-pyruvate, 0.5 mM CaCl2, and 10 mM MgSO4. The pH of the solution was titrated to 7.3-7.4 with concentrated HCl. Coronal slices were cut at a thickness of 300 μm with using a linear slicer PRO7 (Dosaka EM, Kyoto, Japan). Slices were initially recovered for ≤ 15 min at 34°C and then transferred to a holding chamber containing HEPES holding aCSF (92 mM NaCl, 2.5 mM KCl, 1.25 mM NaH2PO4, 30 mM NaHCO3, 20 mM HEPES, 25 mM glucose, 2 mM thiourea, 5 mM Na-ascorbate, 3 mM Na-pyruvate, 2 mM CaCl2 and 2 mM MgSO4) at room temperature for at least 1 h before starting the recording. The slices were then transferred to the recording chamber mounted on a FN1 microscope (Nikon, Tokyo, Japan), in which they were submerged and perfused at a flow rate of 1-2 ml/min with recording aCSF containing the following: 124 mM NaCl, 5 mM KCl, 1.2 mM NaH2PO4, 1.5 mM MgCl2, 2.5 mM CaCl2, 10 mM glucose, 24 mM NaHCO3. All aCSF solutions were continuously bubbled with carbogen (95% O2; 5% CO2). Differential interference contrast (DIC) microscopy (C10639, Hamamatsu, Japan) was used to visualize pyramidal neurons in the PFC. Patch pipettes (5-6 MΩ) were prepared from borosilicate capillary glass using a micropipette puller PC-10 (NARISHIGE, Tokyo, Japan). Current clamp recordings were carried out at 32-33°C using a pipette filled with intracellular solution consisting of: 140 mM K-gluconate, 4 mM KCl, 10 mM HEPES, 0.2 mM EGTA, 4 mM MgATP, 0.3 mM Na2GTP, pH 7.3 with KOH in the presence of bicuculline (20 μM), CGP52422 (10 μM), and APV (50 μM) to block GABAA and B and NMDA receptors, respectively. Signals were recorded using a Multiclamp 700B amplifier (Molecular Devices, LLC, Orleans Drive Sunnyvale, CA), digitized using a Digidata 1440A interface board, filtered between 2 kHz, sampled at 10 kHz, and analyzed with pClamp10 software. Layer V PFC pyramidal neurons were recorded at holding potential of approximately –65 mV with constant current. A hyperpolarizing step (–20 pA) prior to each stimulation was used to monitor any changes in access resistance. Postsynaptic potentials were evoked by constant current single stimulation pulses (100 μs, 10-100 μA) delivered with a 20-s interstimulus interval using monopolar stimulating electrodes positioned in layer I.

GluA2o LBD = GluA2o LBD (Homo sapiens, UniProt P42262); design: method as in earlier work; conditions: read-out: IC50, binding affinity to the GluA2o LBD by SPA using [3H]-HBT1; cited from earlier work
Sequence of GluA2o LBD (P42262 with tags, fused parts or gaps): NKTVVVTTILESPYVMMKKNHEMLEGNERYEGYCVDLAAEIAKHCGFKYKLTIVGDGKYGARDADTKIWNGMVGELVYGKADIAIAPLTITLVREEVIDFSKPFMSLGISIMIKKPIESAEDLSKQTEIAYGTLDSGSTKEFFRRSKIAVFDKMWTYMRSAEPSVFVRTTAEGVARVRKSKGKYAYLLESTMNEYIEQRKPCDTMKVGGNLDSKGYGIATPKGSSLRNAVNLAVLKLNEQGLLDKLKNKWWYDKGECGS

AMPA-R [3] = system: AMPA-R; design: key to Single effect on Ca2+ level: -: No effect or slight effect; +: Potent; ++: Very potent; conditions: cited from earlier work; for Intracellular Ca2+ level, Agonistic effect @30 μM: absence of AMPA, % of 5 μM AMPA + 10 μM HBT1 response; for EC50: in the presence of 5 μM AMPA, read-out: Intracellular Ca2+ level, Potentiation EC50; for Single effect on Ca2+ level: summary grade
AMPA-R [4] = system: AMPA-R; design: key to Single effect on AMPA-R currents: -: No effect or slight effect; +: Potent; ++: Very potent; conditions: cited from earlier work; for AMPA-R currents, Agonistic effect @30 μM: absence of AMPA, % of AMPA (100 μM)-induced steady-state response; for EC50: in the presence of 1 μM AMPA, read-out: AMPA-R currents, Potentiation EC50; for Single effect on AMPA-R currents: summary grade
naïve rats = conditions: cited from earlier work; for NORT (effective doses): summary
rats [5] = conditions: cited from earlier work
rats [6] = system: rats; design: method as in PMID 30209408; conditions: 10 and 30 mg/kg, p.o.; cited from earlier work
[7] = system: MK-801-induced working memory deficit in rats; design: method as in earlier work; conditions: summary, fasted conditions; cited from earlier work
[8] = design: method as in earlier work; conditions: cited from earlier work

Compound: CC(C)S(=O)(=O)NC[C@H](C)c1ccc(-c2ccc(C#N)cc2)cc1 [LY451646]
- Working memory in the RAM test ([1]; 0.03 to 1 mg/kg, p.o., MK-801 0.08 mg/kg, s.c.): neither LY451646 at 0.03 to 1 mg/kg, p.o. nor AMPA at 0.1 to 3 mg/kg, i.p. improve
- RAM (effective doses) ([1]; summary): No effect
- Membrane potentials of recorded neurons (AMPA-R [2]): did not increase
- Suprathreshold response (AMPA-R [2]; 30 μM for 10 min): enhanced the suprathreshold response
- Suprathreshold polysynaptic EPSPs (number of spikes, EPSP duration) (AMPA-R [2]; 0.3 to 30 μM): moderate potentiation
- Synaptic EPSP response (AMPA-R [2]): +
- IC50 (GluA2o LBD): 390 nM
- Intracellular Ca2+ level, Agonistic effect @30 μM (AMPA-R [3]): 88%
- EC50 (AMPA-R [3]): 780 nM
- Single effect on Ca2+ level (AMPA-R [3]): ++
- AMPA-R currents, Agonistic effect @30 μM (AMPA-R [4]): 39%
- EC50 (AMPA-R [4]): 1900 nM
- Single effect on AMPA-R currents (AMPA-R [4]): +
- Dose improving visual learning and memory in NOR test (naïve rats; p.o., rats): ≥ 1 mg/kg
- NORT (effective doses) (naïve rats): Effective (1, 3)
- Margin based on AUCplasma (rats [5]): 4.0 fold
- Margin based on plasma Cmax (rats [5]): 3.4 fold
- Seizure (rats [6]): induced seizure

Compound: O=S1(=O)CCN2C=CC=C(c3ccc(Oc4ccccc4)cc3)C2=N1 [TAK-137, 9-(4-phenoxyphenyl)-3,4-dihydropyrido[2,1-c][1,2,4]thiadiazine 2,2-dioxide]
- Polysynaptic EPSP duration and evoked spikes (AMPA-R [2]; 3 μM, 10 min): potently enhanced; also recorded: robustly enhanced
- Synaptic EPSP response (AMPA-R [2]): ++
- IC50 (GluA2o LBD): 65 nM
- Intracellular Ca2+ level, Agonistic effect @30 μM (AMPA-R [3]): 7.6%
- EC50 (AMPA-R [3]): 420 nM
- Single effect on Ca2+ level (AMPA-R [3]): ─
- AMPA-R currents, Agonistic effect @30 μM (AMPA-R [4]): 6.4%
- EC50 (AMPA-R [4]): 1400 nM
- Single effect on AMPA-R currents (AMPA-R [4]): ─
- NORT (effective doses) (naïve rats): Effective (0.1, 1)
- RAM (effective doses) [7]: Effective (0.2, 0.6) ^\
- Margin based on AUCplasma (rats [5]): 122 fold
- Margin based on plasma Cmax (rats [5]): 42 fold
- Brain concentration under fasted conditions, relative to fed conditions [8]: 71%
- Plasma concentration under fasted conditions, relative to fed conditions [8]: 67%
